Results reported in patent EP0377642B1, “HERBICIDES FOR WEED CONTROL IN RICE” (E.I. DU PONT DE NEMOURS AND COMPANY, priority 1987, dated 1989).

Columns and labels:
Format in all cases: in vivo
[1] = tested on: transplanted rice (var. Nihonbare); experiment: Crop tolerance of transplanted rice, combinations with Thiobencarb, Dimepiperate, Esprocarb and Dymron (Table 15); conditions: 15 days after application
Text: (§1) Methyl 2-[[[[(4-methoxy-6-methyl-1,3,5-triazin-2-yl)amino]carbonyl]amino]sulfonyl]benzoate (Compound 1) and mixtures thereof with other compounds were applied as a spray (using a hand sprayer) to rice (either transplanted or direct seeded) in several rice growing areas in Southeast Asia and in the U.S. Tables 1-28 contain the results of these tests and clearly exemplify the utility of this invention. The details of each application are included in the appropriate table. [drawing 2]

rice = experiment: Herbicidal efficacy in United States (Table 16); conditions: 57 days after application
Text: as §1

Eclipta alba = experiment: Herbicidal efficacy in United States (Table 16); conditions: 57 days after application
Text: as §1

Sesbania exaltata = experiment: Herbicidal efficacy in United States (Table 16); conditions: 57 days after application
Text: as §1

FIMBRISTYLIS MILIACEA = experiment: Herbicidal efficacy alone and with 2,4-D in Thailand (Table 3); conditions: 6 weeks after application
Text: as §1

MV = experiment: Herbicidal efficacy in relation to application timing in Indonesia (Table 5)
Text: as §1

PS = experiment: as above; conditions: 3 WAT
Text: as §1

With `COC(=O)c1ccccc1S(=O)(=O)NC(=O)Nc1nc(C)nc(OC)n1` [Compound 1, Methyl 2-[[[[(4-methoxy-6-methyl-1,3,5-triazin-2-yl)amino]carbonyl]amino]sulfonyl]benzoate] the “CROP TOLERANCE (Nihonbare) DW, dry weight relative to untreated check” value ([1]; 4 GAI/HA) was 107%, the “CROP TOLERANCE (Nihonbare) PH, plant height relative to untreated check” value ([1]; 4 GAI/HA) was 103% and the “CROP TOLERANCE (Nihonbare) VA, visual crop injury” value ([1]; 4 GAI/HA) was 0%. The “CROP TOLERANCE (Nihonbare) DW, dry weight relative to untreated check” value ([1]; 8 GAI/HA) was 83%, the “CROP TOLERANCE (Nihonbare) PH, plant height relative to untreated check” value ([1]; 8 GAI/HA) was 95% and the “CROP TOLERANCE (Nihonbare) VA, visual crop injury” value ([1]; 8 GAI/HA) was 3%. The “% CONTROL OR INJURY RICE” value (rice; 7 GAI/HA) was 3%, the “% CONTROL OR INJURY RICE” value (rice; 14 GAI/HA) was 10% and the “% CONTROL OR INJURY RICE” value (rice; 21 GAI/HA) was 5%. For the same compound, the “% CONTROL OR INJURY EA” value (Eclipta alba; 7 GAI/HA) was 97%, the “% CONTROL OR INJURY EA” value (Eclipta alba; 14 GAI/HA) was 98% and the “% CONTROL OR INJURY EA” value (Eclipta alba; 21 GAI/HA) was 98%. For the same compound, the “% CONTROL OR INJURY SE” value (Sesbania exaltata; 7 GAI/HA) was 97%, the “% CONTROL OR INJURY SE” value (Sesbania exaltata; 14 GAI/HA) was 98% and the “% CONTROL OR INJURY SE” value (Sesbania exaltata; 21 GAI/HA) was 98%. For the same compound, the “FIMBRISTYLIS MILIACEA CONTROL” value (FIMBRISTYLIS MILIACEA; applied 7 DAS, 3 GAI/HA) was 53%, the “FIMBRISTYLIS MILIACEA CONTROL” value (FIMBRISTYLIS MILIACEA; applied 7 DAS, 6 GAI/HA) was 73% and the “FIMBRISTYLIS MILIACEA CONTROL” value (FIMBRISTYLIS MILIACEA; applied 14 DAS, 3 GAI/HA) was 20%. For the same compound, the “FIMBRISTYLIS MILIACEA CONTROL” value (FIMBRISTYLIS MILIACEA; applied 14 DAS, 6 GAI/HA) was 40%, the “FIMBRISTYLIS MILIACEA CONTROL” value (FIMBRISTYLIS MILIACEA; applied 21 DAS, 3 GAI/HA) was 0% and the “FIMBRISTYLIS MILIACEA CONTROL” value (FIMBRISTYLIS MILIACEA; applied 21 DAS, 6 GAI/HA) was 0%. The “FIMBRISTYLIS MILIACEA CONTROL” value (FIMBRISTYLIS MILIACEA; applied 28 DAS, 3 GAI/HA) was 0%, the “FIMBRISTYLIS MILIACEA CONTROL” value (FIMBRISTYLIS MILIACEA; applied 28 DAS, 6 GAI/HA) was 0% and the “% CONTROL MV” value (MV; 3 WAT, 2 GAI/HA, evaluation 1) was 80%. For the same compound, the “% CONTROL MV” value (MV; 3 WAT, 2 GAI/HA, evaluation 2) was 80%, the “% CONTROL MV” value (MV; 3 WAT, 2 GAI/HA, evaluation 3) was 100% and the “% CONTROL MV” value (MV; 3 WAT, 3 GAI/HA, evaluation 1) was 80%. The “% CONTROL MV” value (MV; 3 WAT, 3 GAI/HA, evaluation 2) was 100%, the “% CONTROL MV” value (MV; 3 WAT, 3 GAI/HA, evaluation 3) was 100% and the “% CONTROL MV” value (MV; 3 WAT, 4 GAI/HA, evaluation 1) was 100%. For the same compound, the “% CONTROL MV” value (MV; 3 WAT, 4 GAI/HA, evaluation 2) was 100%, the “% CONTROL MV” value (MV; 3 WAT, 4 GAI/HA, evaluation 3) was 100% and the “% CONTROL MV” value (MV; 3 WAT, 6 GAI/HA, evaluation 1) was 80%. For the same compound, the “% CONTROL MV” value (MV; 3 WAT, 6 GAI/HA, evaluation 2) was 100%, the “% CONTROL MV” value (MV; 3 WAT, 6 GAI/HA, evaluation 3) was 100% and the “% CONTROL MV” value (MV; 3 WAT, 8 GAI/HA, evaluation 1) was 100%. For the same compound, the “% CONTROL MV” value (MV; 3 WAT, 8 GAI/HA, evaluation 2) was 100%, the “% CONTROL MV” value (MV; 3 WAT, 8 GAI/HA, evaluation 3) was 100% and the “% CONTROL MV” value (MV; 4 WAT, 2 GAI/HA, evaluation 1) was 80%. The “% CONTROL MV” value (MV; 4 WAT, 2 GAI/HA, evaluation 2) was 100%, the “% CONTROL MV” value (MV; 4 WAT, 2 GAI/HA, evaluation 3) was 100% and the “% CONTROL MV” value (MV; 4 WAT, 3 GAI/HA, evaluation 1) was 80%. For the same compound, the “% CONTROL MV” value (MV; 4 WAT, 3 GAI/HA, evaluation 2) was 100%, the “% CONTROL MV” value (MV; 4 WAT, 3 GAI/HA, evaluation 3) was 100% and the “% CONTROL MV” value (MV; 4 WAT, 4 GAI/HA, evaluation 1) was 80%. The “% CONTROL MV” value (MV; 4 WAT, 4 GAI/HA, evaluation 2) was 100%, the “% CONTROL MV” value (MV; 4 WAT, 4 GAI/HA, evaluation 3) was 100% and the “% CONTROL MV” value (MV; 4 WAT, 6 GAI/HA, evaluation 1) was 80%. For the same compound, the “% CONTROL MV” value (MV; 4 WAT, 6 GAI/HA, evaluation 2) was 100%, the “% CONTROL MV” value (MV; 4 WAT, 6 GAI/HA, evaluation 3) was 100% and the “% CONTROL MV” value (MV; 4 WAT, 8 GAI/HA, evaluation 1) was 100%. For the same compound, the “% CONTROL MV” value (MV; 4 WAT, 8 GAI/HA, evaluation 2) was 100%, the “% CONTROL MV” value (MV; 4 WAT, 8 GAI/HA, evaluation 3) was 100% and the “% CONTROL MV” value (MV; 5 WAT, 2 GAI/HA, evaluation 1) was 80%. The “% CONTROL MV” value (MV; 5 WAT, 2 GAI/HA, evaluation 2) was 80%, the “% CONTROL MV” value (MV; 5 WAT, 2 GAI/HA, evaluation 3) was 80% and the “% CONTROL MV” value (MV; 5 WAT, 3 GAI/HA, evaluation 1) was 80%. For the same compound, the “% CONTROL MV” value (MV; 5 WAT, 3 GAI/HA, evaluation 2) was 100%, the “% CONTROL MV” value (MV; 5 WAT, 3 GAI/HA, evaluation 3) was 100% and the “% CONTROL MV” value (MV; 5 WAT, 4 GAI/HA, evaluation 1) was 80%. The “% CONTROL MV” value (MV; 5 WAT, 4 GAI/HA, evaluation 2) was 100%, the “% CONTROL MV” value (MV; 5 WAT, 4 GAI/HA, evaluation 3) was 100% and the “% CONTROL MV” value (MV; 5 WAT, 6 GAI/HA, evaluation 1) was 80%. For the same compound, the “% CONTROL MV” value (MV; 5 WAT, 6 GAI/HA, evaluation 2) was 100%, the “% CONTROL MV” value (MV; 5 WAT, 6 GAI/HA, evaluation 3) was 100% and the “% CONTROL MV” value (MV; 5 WAT, 8 GAI/HA, evaluation 1) was 100%. The “% CONTROL MV” value (MV; 5 WAT, 8 GAI/HA, evaluation 2) was 100%, the “% CONTROL MV” value (MV; 5 WAT, 8 GAI/HA, evaluation 3) was 100% and the “% CONTROL PS” value (PS; 2 GAI/HA, evaluation 1) was 0%. The “% CONTROL PS” value (PS; 2 GAI/HA, evaluation 2) was 0%, the “% CONTROL PS” value (PS; 2 GAI/HA, evaluation 3) was 0% and the “% CONTROL PS” value (PS; 3 GAI/HA, evaluation 1) was 0%. For the same compound, the “% CONTROL PS” value (PS; 3 GAI/HA, evaluation 2) was 0%, the “% CONTROL PS” value (PS; 3 GAI/HA, evaluation 3) was 0% and the “% CONTROL PS” value (PS; 4 GAI/HA, evaluation 1) was 0%. The “% CONTROL PS” value (PS; 4 GAI/HA, evaluation 2) was 0%, the “% CONTROL PS” value (PS; 4 GAI/HA, evaluation 3) was 0% and the “% CONTROL PS” value (PS; 6 GAI/HA, evaluation 1) was 0%. For the same compound, the “% CONTROL PS” value (PS; 6 GAI/HA, evaluation 2) was 0%.
